Data reported in patent EP3108883A1, “THERAPEUTIC USES OF NON-PEPTIDE INHIBITORS OF THE CALCINEURIN - NFAT SIGNALLING PATHWAY” (Fundació Institut de Recerca Biomèdica de Bellvitge, priority 2015, dated 2016).

Target: CN (Homo sapiens, UniProt Q08209)
Experiment: In vitro CN phosphatase assay with pNPP as substrate
Assay type: biochemical
Details: ZnCl2 control at 50 µM
Protocol: CN activity towards the pNPP substrate was measured as described (McAvoy, et al., in Current Protocols in Molecular Biology. (John Wiley & Sons, Inc., 2001), vol. 92, chap. 18, pp. 18). The CN phosphatase assay kit (ENZO Life Sciences, Farmingdale, NY) was used to assess the dephosphorylation of phosphoRII peptide by CN (Mulero et al., 2009, supra.). Potential immunosuppressant CN inhibitors should compete with NFATc for binding, without blocking the general phosphatase activity of CN. As an initial screening test, the phosphatase activity of CN was analyzed using the small molecule p-nitrophenil phosphate (pNPP) as substrate (see Material and Methods). […] The ability of compounds 1-32 in inhibiting CN-NFATc signaling was evaluated in human HEK 293T cells using a luciferase gene reporter assay that includes the NFATc-dependent IL2 promoter (3[…]). After 24 hours of treatment, 50 μM of compounds 6, 9, 17, 19, 23, 25 and 29 inhibit more than 75% NFATc activity, while compounds 1, 2, 4, 8, 10, 14, and 24 inhibit 50-75% NFATc activity (Fig. 2B).

[Cl-].[Cl-].[Zn+2] [ZnCl2]
CN phosphatase activity towards pNPP: strongly inhibits enzymatic activity
